Measured values: US20210308173A1, “PHARMACEUTICAL COMPOSITION COMPRISING CYCLODEXTRIN COMPLEXES OF ANETHOLE TRITHIONE OR DERIVATIVES THEREOF” (priority 2018, published 2021)

Experiment: Cyclodextrin-AOL solubility diagrams
Format: physicochemical
Excerpt: A cyclodextrin-AOL solubility diagram would reveal the profile of the solubility curve of the AOL depending on the concentration of the cyclodextrin. The principle of this method is to add an excess of AOL to cyclodextrin solutions of increasing concentration, then to measure the amount of solubilized AOL. This method confirms the solubilization and evaluates more precisely the cyclodextrin solubilizing power, to define a stoichiometry of the complexes (molar and mass ratios) over the entire range of concentrations studied and to estimate the solubility limit and the stability of the mixtures.
The solubilization was carried out with HP-β-CD and SBE-β-CD in a range of concentration ranging from 2.5% to 40% (m/m) at 20° C., 25° C. and 30° C. To check the stability of the solution, a storage test at 4° C. for 48 hours was carried out with the solutions previously prepared at 20° C.
Aqueous solutions of cyclodextrin at in weight (m/m) concentrations of 2.5%, 5%, 10%, 20%, 30% and 40% were prepared in pure water. An excess of AOL was suspended in 2 mL each of these solutions. Each sample is shaken at 20° C., 25° C. or 30° C. for 4 hours (vortex at 1400 rpm). Each sample is centrifuged (12,500 g) and filtered through a 0.45 μm membrane.
The solubility of AOL in each test solution was quantified by HPLC as detailed in Example 2.

[1] = HP-β-CD 2.5% (w/w), 20° C. followed by 48 hours at 4° C.
[2] = HP-β-CD 5% (w/w), 20° C. followed by 48 hours at 4° C.
[3] = HP-β-CD 10% (w/w), 20° C. followed by 48 hours at 4° C.
[4] = HP-β-CD 20% (w/w), 20° C. followed by 48 hours at 4° C.
[5] = HP-β-CD 30% (w/w), 20° C. followed by 48 hours at 4° C.
[6] = HP-β-CD 40% (w/w), 20° C. followed by 48 hours at 4° C.
[7] = SBE-β-CD 2.5% (w/w), 20° C. followed by 48 hours at 4° C.
[8] = SBE-β-CD 5% (w/w), 20° C. followed by 48 hours at 4° C.
[9] = SBE-β-CD 10% (w/w), 20° C. followed by 48 hours at 4° C.

CD/AOL molar ratio RM (HP-β-CD 2.5% (w/w), 20° C.): 200 | CD/AOL weight ratio Rm (HP-β-CD 2.5% (w/w), 20° C.): 1866 | CD/AOL molar ratio RM [1]: 231 | CD/AOL weight ratio Rm [1]: 2155 | CD/AOL molar ratio RM (HP-β-CD 2.5% (w/w), 25° C.): 137 | CD/AOL weight ratio Rm (HP-β-CD 2.5% (w/w), 25° C.): 1282 | CD/AOL molar ratio RM (HP-β-CD 2.5% (w/w), 30° C.): 103 | CD/AOL weight ratio Rm (HP-β-CD 2.5% (w/w), 30° C.): 958 | CD/AOL molar ratio RM (HP-β-CD 5% (w/w), 20° C.): 196 | CD/AOL weight ratio Rm (HP-β-CD 5% (w/w), 20° C.): 1832 | CD/AOL molar ratio RM [2]: 213 | CD/AOL weight ratio Rm [2]: 1992 | CD/AOL molar ratio RM (HP-β-CD 5% (w/w), 25° C.): 133 | CD/AOL weight ratio Rm (HP-β-CD 5% (w/w), 25° C.): 1247 | CD/AOL molar ratio RM (HP-β-CD 5% (w/w), 30° C.): 104 | CD/AOL weight ratio Rm (HP-β-CD 5% (w/w), 30° C.): 973 | CD/AOL molar ratio RM (HP-β-CD 10% (w/w), 20° C.): 175 | CD/AOL weight ratio Rm (HP-β-CD 10% (w/w), 20° C.): 1631 | CD/AOL molar ratio RM [3]: 203 | CD/AOL weight ratio Rm [3]: 1898 | CD/AOL molar ratio RM (HP-β-CD 10% (w/w), 25° C.): 128 | CD/AOL weight ratio Rm (HP-β-CD 10% (w/w), 25° C.): 1192 | CD/AOL molar ratio RM (HP-β-CD 10% (w/w), 30° C.): 94 | CD/AOL weight ratio Rm (HP-β-CD 10% (w/w), 30° C.): 874 | CD/AOL molar ratio RM (HP-β-CD 20% (w/w), 20° C.): 148 | CD/AOL weight ratio Rm (HP-β-CD 20% (w/w), 20° C.): 1381 | CD/AOL molar ratio RM [4]: 197 | CD/AOL weight ratio Rm [4]: 1840 | CD/AOL molar ratio RM (HP-β-CD 20% (w/w), 25° C.): 116 | CD/AOL weight ratio Rm (HP-β-CD 20% (w/w), 25° C.): 1086 | CD/AOL molar ratio RM (HP-β-CD 20% (w/w), 30° C.): 84 | CD/AOL weight ratio Rm (HP-β-CD 20% (w/w), 30° C.): 784 | CD/AOL molar ratio RM (HP-β-CD 30% (w/w), 20° C.): 132 | CD/AOL weight ratio Rm (HP-β-CD 30% (w/w), 20° C.): 1235 | CD/AOL molar ratio RM [5]: 172 | CD/AOL weight ratio Rm [5]: 1607 | CD/AOL molar ratio RM (HP-β-CD 30% (w/w), 25° C.): 112 | CD/AOL weight ratio Rm (HP-β-CD 30% (w/w), 25° C.): 1044 | CD/AOL molar ratio RM (HP-β-CD 30% (w/w), 30° C.): 70 | CD/AOL weight ratio Rm (HP-β-CD 30% (w/w), 30° C.): 655 | CD/AOL molar ratio RM (HP-β-CD 40% (w/w), 20° C.): 124 | CD/AOL weight ratio Rm (HP-β-CD 40% (w/w), 20° C.): 1162 | CD/AOL molar ratio RM [6]: 159 | CD/AOL weight ratio Rm [6]: 1481 | CD/AOL molar ratio RM (HP-β-CD 40% (w/w), 25° C.): 103 | CD/AOL weight ratio Rm (HP-β-CD 40% (w/w), 25° C.): 958 | CD/AOL molar ratio RM (HP-β-CD 40% (w/w), 30° C.): 66 | CD/AOL weight ratio Rm (HP-β-CD 40% (w/w), 30° C.): 621 | CD/AOL molar ratio RM (SBE-β-CD 2.5% (w/w), 20° C.): 91 | CD/AOL weight ratio Rm (SBE-β-CD 2.5% (w/w), 20° C.): 853 | CD/AOL molar ratio RM [7]: 158 | CD/AOL weight ratio Rm [7]: 1479 | CD/AOL molar ratio RM (SBE-β-CD 2.5% (w/w), 25° C.): 75 | CD/AOL weight ratio Rm (SBE-β-CD 2.5% (w/w), 25° C.): 698 | CD/AOL molar ratio RM (SBE-β-CD 2.5% (w/w), 30° C.): 60 | CD/AOL weight ratio Rm (SBE-β-CD 2.5% (w/w), 30° C.): 559 | CD/AOL molar ratio RM (SBE-β-CD 5% (w/w), 20° C.): 90 | CD/AOL weight ratio Rm (SBE-β-CD 5% (w/w), 20° C.): 838 | CD/AOL molar ratio RM [8]: 155 | CD/AOL weight ratio Rm [8]: 1445 | CD/AOL molar ratio RM (SBE-β-CD 5% (w/w), 25° C.): 71 | CD/AOL weight ratio Rm (SBE-β-CD 5% (w/w), 25° C.): 668 | CD/AOL molar ratio RM (SBE-β-CD 5% (w/w), 30° C.): 56 | CD/AOL weight ratio Rm (SBE-β-CD 5% (w/w), 30° C.): 520 | CD/AOL molar ratio RM (SBE-β-CD 10% (w/w), 20° C.): 85 | CD/AOL weight ratio Rm (SBE-β-CD 10% (w/w), 20° C.): 798 | CD/AOL molar ratio RM [9]: 151 | CD/AOL weight ratio Rm [9]: 1414 | CD/AOL molar ratio RM (SBE-β-CD 10% (w/w), 25° C.): 68 | CD/AOL weight ratio Rm (SBE-β-CD 10% (w/w), 25° C.): 639 | CD/AOL molar ratio RM (SBE-β-CD 10% (w/w), 30° C.): 54 | CD/AOL weight ratio Rm (SBE-β-CD 10% (w/w), 30° C.): 507 | CD/AOL molar ratio RM (SBE-β-CD 20% (w/w), 20° C.): 77
Structure (SMILES): COc1ccc(-c2cc(=S)ss2)cc1 [AOL, 5-(4-methoxyphenyl)-3H-1,2-dithiole-3-thione]
